Measurements taken from a compilation of properties of binary mixtures (doi:10.1016/j.jct.2008.09.001).

Experiment: xn = mol fraction of the nth substance listed
Settings: 101.3 kPa

CCCC[n+]1ccccc1.F[B-](F)(F)F + O
viscosity [mPa·s]
Settings	x2 = 0	x2 = 0.11	x2 = 0.263	x2 = 0.391	x2 = 0.414	x2 = 0.549	x2 = 0.637	x2 = 0.724	x2 = 0.856
283.15 K	464	211	–	44.9	41.27	22.77	–	–	5.53
288.15 K	313	–	60.2	–	32.98	18.49	–	–	4.58
293.15 K	223	115.6	47.4	29.05	26.81	15.37	10.82	7.61	3.88
298.15 K	163.3	88.1	38.1	23.97	22.21	12.99	9.16	–	3.36
303.15 K	123	–	31.12	20.01	18.63	–	8	5.65	2.94
308.15 K	94.2	53.4	25.87	16.93	15.81	9.61	7.01	4.92	2.6
313.15 K	70.3	43.2	21.69	14.51	13.58	–	6.13	–	2.32
318.15 K	55.8	35.5	18.48	12.53	11.77	7.41	5.43	3.85	2.09
323.15 K	45.1	29.49	15.87	10.93	10.22	6.57	4.78	3.46	1.9
328.15 K	37.1	–	13.77	9.58	9.06	5.86	4.29	–	1.74
333.15 K	30.9	21.18	12.04	8.6	–	5.19	3.87	2.82	1.61
338.15 K	26.01	18.21	10.57	7.71	7.17	4.68	–	2.58	1.5
343.15 K	22.17	–	–	–	6.37	4.24	3.22	2.37	1.4
353.15 K	15.84	–	–	–	–	–	–	–	–
